Data on 124 compounds can be found in a melting point compilation (Tetko et al.).

For orientation: melting point means the temperature, or range, at which the solid turns liquid.

For `Cc1cc2cc(F)ccc2[nH]1`, the melting point fell in the range of 98 to 101 °C.
Take `NC(=S)c1cncnc1N`: the melting point was 197 to 199 °C.
Compound `O=C(O)c1cc2c(F)c(F)ccc2[nH]1` showed a melting point of 209 to 211 °C.
`COc1ccc(-c2nn(-c3ccccc3)cc2CCl)cc1` yielded a melting point of 89 to 91 °C.
In turn, `O=Cc1csc(-c2ccco2)n1` registered a melting point of 90 to 92 °C.
Compound `Cc1nc(-c2cc(C(=O)O)cs2)cs1` returned a melting point of 226 to 228 °C.
In the case of `COc1ccc(-c2nnc(N)o2)cc1OC` it was 235 to 237 °C; in that of `Cc1cccc(OCC(=O)N2CCNCC2)c1C`, 86 to 88 °C.
The compound `N#CC(N)c1ccc(Cl)cc1Cl` (centres undefined) showed a melting point of 80 to 82 °C.
As to `O=C(O)c1cc(-c2ccco2)nc2ccccc12`, the melting point lay within 209 to 211 °C.
Compound `NC(=S)C1CN2CCCC2CO1` (centres undefined) displayed a melting point of 146 to 148 °C.
`C#CCn1cnc2c(N)ncnc21` registered a melting point of 184 to 186 °C.
In the case of `Cc1ccc(N2CC(C(=O)O)CCC2=O)cc1C` (centres undefined) it was 184 to 186 °C.
`O=c1[nH]c(S)nn1-c1ccccc1` registered a melting point of 187 to 189 °C.
`Nc1ccc(OCCO)nc1` returned a melting point of 63 to 65 °C.
On to `CN1CC(=O)N(c2cccc(N)c2)C1=O`, for which the melting point lay within 131 to 133 °C.
As to `Cc1cc2c(cc1Br)NCC(C)O2` (centres undefined), the melting point lay in the range of 93 to 95 °C.
The compound `Clc1cc2c(cc1Cl)OCO2` registered a melting point of 71 to 73 °C.
As for `CC(C)CC(=O)Nc1ccc(Cl)c(C(=O)O)c1`, the melting point fell in the range of 174 to 176 °C.
Compound `Cc1cc(C(=O)O)nn1-c1ccccn1` gave a melting point of 157 to 159 °C.
`O=C(O)C(=O)C=Cc1cccs1`: the melting point lay in the range of 114 to 116 °C.
Compound `Cc1cc(C(=O)O)c(F)cc1F` yielded a melting point of 159 to 161 °C.
For `O=C1Nc2ccc(Br)cc2C1=NO`, the melting point fell in the range of 268 to 270 °C.
In turn, `CC1NCCn2c(Cl)ccc21` (centres undefined) came in with a melting point of 53 to 55 °C.
The compound `c1cnnc(NCC2CNCCO2)c1` (centres undefined) yielded a melting point of 148 to 150 °C.
`Cc1cc(=O)c(C(=O)O)n[nH]1`: the melting point fell in the range of 193 to 195 °C.
`CC(C)(C)c1ccc(C(=O)CC#N)cc1` registered a melting point of 78 to 80 °C.
Compound `O=C1CCS(=O)(=O)O1` gave a melting point of 69 to 71 °C.
For `CC(C)n1ncc2cc(S(=O)(=O)Cl)ccc21`, the melting point was 88 to 90 °C.
`Cc1cc(Br)oc1C(=O)O` came in with a melting point of 169 to 171 °C.
In turn, `O=C1Nc2cc(I)ccc2C1=O` gave a melting point of 264 to 266 °C.
With `N#CCC(=O)NC1CCCC1`, the melting point lay in the range of 92 to 94 °C.
`O=Cc1cnn2cccnc12`: the melting point is 149 to 151 °C.
Compound `FC(F)n1ccnc1CN1CCNCC1` gave a melting point of 73 to 75 °C.
`Cc1cccc2c1C(=O)NCCN2`: the melting point is 182 to 184 °C.
For the compound `Cn1cc(C=O)c(-c2cccs2)n1`, the melting point was in the range of 64 to 66 °C.
In the case of `Cc1cc(C(=O)O)c(C)n1-c1cccnc1` it was 192 to 194 °C; in that of `CC(=O)NC1CCCNC1` (centres undefined), 65 to 67 °C; in that of `O=C1NC(=O)C(Cc2ccc(O)cc2)N1` (centres undefined), 267 to 269 °C.
Regarding `CC1(c2ccc(Br)cc2)NC(=O)NC1=O` (centres undefined), the melting point lay within 262 to 264 °C.
For `Nc1ccc(S(N)(=O)=O)cc1[N+](=O)[O-]`, the melting point was 206 to 208 °C.
`O=S(=O)(c1ccc(Cl)cc1)N1CCNCC1`: the melting point is 99 to 103 °C.
In the case of `O=C1CC(=O)N(c2cccnc2)C(=S)N1`, the melting point lay in the range of 229 to 231 °C.
Consider `CCc1ccc(C(=O)O)cc1[N+](=O)[O-]`, for which the melting point was 158 to 160 °C.
Turning to `COC(=O)C1CSCC(c2ccccc2)N1` (centres undefined), the melting point fell in the range of 96 to 98 °C.
For the compound `NCC(=O)Nc1cccc(F)c1`, the melting point is 82 to 84 °C.
`O=C(O)c1cc(Cl)nc(N2CCOCC2)c1` showed a melting point of 222 to 224 °C.
In the case of `Cc1ccc(-c2ncc(C(=O)O)s2)c(C)c1` it was 171 to 173 °C; in that of `Cc1[nH]c(N)c(C#N)c1C`, 149 to 151 °C; in that of `Cn1nnc2cc(C(=O)O)cnc21`, 229 to 231 °C.
Turning to `COC(=O)c1cccc(NC(=O)CC(C)=O)c1`, the melting point lay within 75 to 77 °C.
Consider `Cc1ccc(N)cc1NC(=O)c1ccncc1`, for which the melting point was in the range of 201 to 203 °C.
For the compound `O=C(O)Cc1ccc(NC(=O)c2cscn2)cc1`, the melting point was 184 to 186 °C.
As for `CCOc1ccc(C(CN)c2c[nH]c3ccccc23)cc1OC` (centres undefined), the melting point was 114 to 116 °C.
Next, `N#Cc1ccc(NC(=O)C(=O)O)cc1Cl`: 203 to 205 °C; `N#Cc1cccnc1-n1cncn1`: 201 to 203 °C; `COCc1cc([N+](=O)[O-])ccc1N`: 83 to 85 °C.
The compound `CN1CCCNc2nc3ccccc3nc21` had a melting point of 146 to 148 °C.
`O=C(NCc1cccc(Br)c1)NC1(C(=O)O)CCCC1` returned a melting point of 170 to 172 °C.
Next, `c1cc2[nH]nnc2cn1`: 240 to 242 °C; `OCc1ccn(-c2ccccc2)n1`: 49 to 51 °C; `N#Cc1cnoc1N`: 143 to 145 °C.
The compound `NC(=S)C1CCOC1` (centres undefined) had a melting point of 102 to 104 °C.
`O=C(O)c1cc([N+](=O)[O-])cc2c1OCCO2` came in with a melting point of 248 to 250 °C.
In the case of `CS(=O)(=O)Nc1cccc(I)c1` it was 119 to 121 °C; in that of `COc1cc(/C=C/C(=O)O)cc(Cl)c1OC(C)C`, 113 to 115 °C; in that of `Cc1nc(-c2ccco2)ccc1C(=O)O`, 174 to 176 °C.
For `Nc1ccnn1Cc1ccc(Cl)c(F)c1`, the melting point lay within 68 to 70 °C.
Next, `N#Cc1ccc(Oc2ccc(S(=O)(=O)Cl)cc2)cc1`: 110 to 112 °C.
Turning to `Cc1ccc(Cl)cc1NC(=O)CC#N`, the melting point was 190 to 192 °C.
In the case of `CCC(Oc1ccccc1F)C(=O)O` (centres undefined) it was 63 to 65 °C; in that of `O=C(O)C1C2C3CCC(C3)C12` (centres undefined), 96 to 98 °C.
For `Nc1cccc2c1CC(O)C2` (centres undefined), the melting point lay within 125 to 127 °C.
Next, `NC(=O)COc1ccccc1C(=O)O`: 199 to 201 °C.
Next, `Nn1cncn1`: 64 to 66 °C; `Cc1cccc(-c2nn(-c3ccc(F)cc3)cc2C(=O)O)c1`: 168 to 170 °C.
Compound `O=C(CCl)N1CCc2cc(S(=O)(=O)N3CCCCC3)ccc21` registered a melting point of 185 to 187 °C.
Compound `COc1ccccc1NC(=O)CCCCC(=O)O` came in with a melting point of 82 to 84 °C.
For the compound `CN(C)C=C1C(=O)CCCC1=O`, the melting point lay in the range of 111 to 113 °C.
`O=C(O)c1csc(-c2ccc(Cl)cc2Cl)n1` gave a melting point of 204 to 206 °C.
`Cc1cc(N)n(C2CCN(C)CC2)n1`: the melting point was 89 to 91 °C.
With `Cc1nnc(S)o1`, the melting point lay in the range of 239 to 241 °C.
Consider `CN(c1ccc(O)cc1)S(=O)(=O)c1ccccc1`, for which the melting point fell in the range of 131 to 133 °C.
`CCN1CCN(S(=O)(=O)c2cccc(N)c2)CC1` came in with a melting point of 94 to 96 °C.
`Cc1oncc1C(=O)NC(C)C(=O)O` (centres undefined) returned a melting point of 159 to 161 °C.
As to `N#CCCC(=O)c1cccnc1`, the melting point was in the range of 71 to 73 °C.
In turn, `NC(=O)COc1cccc(C(=O)O)c1` registered a melting point of 223 to 225 °C.
`OC(CC1COCCN1)c1cccs1` (centres undefined) yielded a melting point of 109 to 111 °C.
Regarding `NC(=O)C1CCNc2ccccc21` (centres undefined), the melting point lay in the range of 119 to 121 °C.
`O=C1/C(=C\C=C\c2ccco2)CCC/C1=C\C=C\c1ccco1` gave a melting point of 162 to 164 °C.
`CNS(=O)(=O)c1ccc(-c2ccccc2OC(F)(F)F)c(C(=O)O)c1` returned a melting point of 172 to 174 °C.
`CN1CCN(c2ccc(N)c(C(F)(F)F)c2)CC1` showed a melting point of 87 to 89 °C.
In the case of `Cc1ccc2c(CCl)cc(=O)oc2c1` it was 170 to 172 °C; in that of `O=C(O)C1CCCN(C(=O)NC2CCCC2)C1` (centres undefined), 167 to 169 °C; in that of `CCOC(=O)CCS(=O)(=O)c1ccc(F)cc1`, 38 to 40 °C.
As to `Cc1ccc(NS(=O)(=O)c2ccc(C)c(N)c2)c(C)c1`, the melting point was in the range of 111 to 113 °C.
`O=C(O)c1ccc(N2C(=O)CSC2=S)cc1`: the melting point is 281 to 283 °C.
In turn, `CN(C1CC1)S(=O)(=O)c1ccc(N)cc1` returned a melting point of 131 to 133 °C.
Next, `CC(C)(C)c1ccc(Oc2ccc(C(=O)O)cn2)cc1`: 143 to 145 °C; `O=[N+]([O-])c1ccc2c(c1)CCCN2`: 155 to 157 °C; `O=C(O)C(Cc1ccccc1)N1CCCOC1=O` (centres undefined): 163 to 165 °C.
Compound `Nc1nc2c(s1)CN(Cc1ccccc1)CC2` had a melting point of 95 to 98 °C.
On to `C=CCOc1c(Br)cc(C=O)cc1OC`, for which the melting point was 52 to 53 °C.
Take `O=C(O)Cn1cn[nH]c1=O`: the melting point fell in the range of 217 to 219 °C.
With `CCOC(=O)C1CC1c1ccc(OC)cc1` (centres undefined), the melting point lay in the range of 78 to 80 °C.
As to `Cc1cc(C(=O)C=O)ccc1F`, the melting point is 76 to 78 °C.
Consider `CCN1CCN(c2ccccc2N)CC1`, for which the melting point fell in the range of 39 to 43 °C.
The compound `COC(=O)C(Cl)c1cccc(C#N)c1` (centres undefined) came in with a melting point of 49 to 51 °C.
`COc1ccc(S(=O)(=O)Nc2ccccc2Cl)cc1N` returned a melting point of 93 to 95 °C.
Next, `ClCc1nnc(-c2ccc(Cl)cc2Cl)o1`: 87 to 89 °C; `CCCCOc1ccc(C=O)cc1OCC`: 38 to 40 °C.
In the case of `O=C(O)CCc1nnc(C2CCCC2)o1` it was 62 to 64 °C; in that of `COC(=O)c1ccncc1O`, 149 to 151 °C; in that of `O=C(c1ccc(Br)cc1)N1CCc2ccccc21`, 123 to 125 °C.
For the compound `O=C(O)c1ccc(OCC(F)(F)F)cc1`, the melting point lay within 200 to 202 °C.
For `O=Cc1sc(=O)[nH]c1Cl`, the melting point was in the range of 199 to 201 °C.
Turning to `CC(C)(C)OC(=O)N1CCC(N2CCCC2C(=O)O)CC1` (centres undefined), the melting point lay in the range of 169 to 171 °C.
In the case of `Nc1ccn(-c2ccncc2)n1` it was 192 to 194 °C.
`NC(=NO)c1cccc(F)c1`: the melting point fell in the range of 73 to 75 °C.
In turn, `O=C(O)CC(Br)C(=O)c1ccccc1` (centres undefined) showed a melting point of 128 to 130 °C.
Next, `O=C1NC(=O)N2CCCC12` (centres undefined): 149 to 151 °C.
The compound `CC(=O)NCCCc1ccc(C(=O)CCl)cc1` displayed a melting point of 96 to 98 °C.
In the case of `NNC(=O)Nc1ccc(Br)cc1`, the melting point lay within 236 to 238 °C.
Next, `CCOC(C)c1nc(C)c(C(=O)O)s1` (centres undefined): 112 to 114 °C.
